ChEMBL document CHEMBL4007491, “Structure-based drug design of novel ASK1 inhibitors using an integrated lead optimization strategy” (Bioorg Med Chem Lett, 2017)

How the values were obtained:
[1] = biological target: T1, Mitogen-activated protein kinase kinase kinase 5 (Homo sapiens, UniProt Q99683); test: Inhibition of ASK1 (unknown origin) assessed as reduction in JNK phosphorylation by cell based assay
T1 sequence (Q99683 whole entry): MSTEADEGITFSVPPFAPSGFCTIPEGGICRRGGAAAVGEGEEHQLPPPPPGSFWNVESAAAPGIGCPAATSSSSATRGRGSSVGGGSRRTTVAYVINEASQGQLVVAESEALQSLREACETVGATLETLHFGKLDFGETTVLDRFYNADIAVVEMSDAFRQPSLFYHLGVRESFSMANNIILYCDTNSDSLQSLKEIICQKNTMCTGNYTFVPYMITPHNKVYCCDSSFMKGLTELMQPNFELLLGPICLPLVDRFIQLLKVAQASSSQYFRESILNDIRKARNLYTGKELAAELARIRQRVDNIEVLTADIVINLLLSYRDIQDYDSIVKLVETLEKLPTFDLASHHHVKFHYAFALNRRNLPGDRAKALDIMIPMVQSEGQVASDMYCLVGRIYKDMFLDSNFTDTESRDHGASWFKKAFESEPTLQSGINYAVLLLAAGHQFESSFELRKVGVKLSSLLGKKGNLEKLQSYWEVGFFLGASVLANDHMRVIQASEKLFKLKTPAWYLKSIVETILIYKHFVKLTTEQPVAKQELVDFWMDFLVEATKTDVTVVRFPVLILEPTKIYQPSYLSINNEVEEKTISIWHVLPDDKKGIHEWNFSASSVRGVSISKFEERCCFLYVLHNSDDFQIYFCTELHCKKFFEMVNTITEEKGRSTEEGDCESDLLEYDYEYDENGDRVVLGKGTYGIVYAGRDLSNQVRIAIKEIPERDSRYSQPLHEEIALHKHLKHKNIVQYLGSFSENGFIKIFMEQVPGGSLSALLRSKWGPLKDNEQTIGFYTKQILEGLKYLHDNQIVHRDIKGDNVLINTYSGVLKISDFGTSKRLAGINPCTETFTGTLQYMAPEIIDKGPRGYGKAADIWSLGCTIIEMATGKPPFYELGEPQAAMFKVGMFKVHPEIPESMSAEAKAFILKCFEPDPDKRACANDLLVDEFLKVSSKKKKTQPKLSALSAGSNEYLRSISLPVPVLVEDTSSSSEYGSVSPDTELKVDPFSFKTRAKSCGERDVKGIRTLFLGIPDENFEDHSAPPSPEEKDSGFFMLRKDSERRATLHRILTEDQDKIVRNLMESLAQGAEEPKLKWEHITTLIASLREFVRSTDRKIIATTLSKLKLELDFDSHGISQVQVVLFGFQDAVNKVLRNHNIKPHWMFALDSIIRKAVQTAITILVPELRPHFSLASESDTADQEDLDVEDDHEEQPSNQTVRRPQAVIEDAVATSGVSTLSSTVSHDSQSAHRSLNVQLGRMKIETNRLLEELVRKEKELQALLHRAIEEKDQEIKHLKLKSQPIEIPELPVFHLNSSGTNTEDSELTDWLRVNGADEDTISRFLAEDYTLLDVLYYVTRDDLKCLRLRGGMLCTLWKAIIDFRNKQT

[2] = biological target: T1, Mitogen-activated protein kinase kinase kinase 5; test: Inhibition of ASK1 (unknown origin) using biotin-MBP as substrate after 20 mins by TR-FRET assay
[3] = biological target: T2, Mitogen-activated protein kinase kinase kinase 5 (Homo sapiens) (UniProt Q99683); test: Inhibition of ASK1 (unknown origin) at 500 uM using biotin-MBP as substrate after 20 mins by TR-FRET assay relative to control
T2 sequence (whole entry): T1 sequence (Q99683 whole entry)

[4] = biological target: Cyclin-dependent kinase 2 (Homo sapiens, UniProt P24941); test: Inhibition of CDK2 (unknown origin)
[5] = biological target: T3, Tyrosine-protein kinase ITK/TSK (Homo sapiens, UniProt Q08881); test: Inhibition of recombinant full length human GST-tagged ITK expressed in baculovirus expression system
T3 sequence (Q08881 whole entry): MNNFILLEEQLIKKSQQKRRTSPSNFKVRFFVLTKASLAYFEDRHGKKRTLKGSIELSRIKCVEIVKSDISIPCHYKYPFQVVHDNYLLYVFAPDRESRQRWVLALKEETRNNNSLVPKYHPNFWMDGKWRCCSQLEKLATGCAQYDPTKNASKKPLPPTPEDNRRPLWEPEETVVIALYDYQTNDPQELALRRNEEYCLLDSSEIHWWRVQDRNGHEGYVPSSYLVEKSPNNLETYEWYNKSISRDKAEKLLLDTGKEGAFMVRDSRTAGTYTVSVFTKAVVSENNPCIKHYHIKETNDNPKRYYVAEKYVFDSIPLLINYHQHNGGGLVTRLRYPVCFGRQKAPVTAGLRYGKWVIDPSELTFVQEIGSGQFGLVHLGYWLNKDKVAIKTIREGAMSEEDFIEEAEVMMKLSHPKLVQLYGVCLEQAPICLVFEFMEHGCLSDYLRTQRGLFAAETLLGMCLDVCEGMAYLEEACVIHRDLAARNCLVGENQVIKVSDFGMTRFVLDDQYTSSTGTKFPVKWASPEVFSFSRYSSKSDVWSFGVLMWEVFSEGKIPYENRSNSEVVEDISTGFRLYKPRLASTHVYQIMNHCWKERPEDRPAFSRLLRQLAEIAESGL

[6] = biological target: Proto-oncogene tyrosine-protein kinase receptor Ret (Homo sapiens, UniProt P07949); test: Inhibition of recombinant human GST-tagged RET cytoplasmic domain expressed in baculovirus expression system
Chain of Proto-oncogene tyrosine-protein kinase receptor Ret (P07949 whole entry, the tested form may be a part): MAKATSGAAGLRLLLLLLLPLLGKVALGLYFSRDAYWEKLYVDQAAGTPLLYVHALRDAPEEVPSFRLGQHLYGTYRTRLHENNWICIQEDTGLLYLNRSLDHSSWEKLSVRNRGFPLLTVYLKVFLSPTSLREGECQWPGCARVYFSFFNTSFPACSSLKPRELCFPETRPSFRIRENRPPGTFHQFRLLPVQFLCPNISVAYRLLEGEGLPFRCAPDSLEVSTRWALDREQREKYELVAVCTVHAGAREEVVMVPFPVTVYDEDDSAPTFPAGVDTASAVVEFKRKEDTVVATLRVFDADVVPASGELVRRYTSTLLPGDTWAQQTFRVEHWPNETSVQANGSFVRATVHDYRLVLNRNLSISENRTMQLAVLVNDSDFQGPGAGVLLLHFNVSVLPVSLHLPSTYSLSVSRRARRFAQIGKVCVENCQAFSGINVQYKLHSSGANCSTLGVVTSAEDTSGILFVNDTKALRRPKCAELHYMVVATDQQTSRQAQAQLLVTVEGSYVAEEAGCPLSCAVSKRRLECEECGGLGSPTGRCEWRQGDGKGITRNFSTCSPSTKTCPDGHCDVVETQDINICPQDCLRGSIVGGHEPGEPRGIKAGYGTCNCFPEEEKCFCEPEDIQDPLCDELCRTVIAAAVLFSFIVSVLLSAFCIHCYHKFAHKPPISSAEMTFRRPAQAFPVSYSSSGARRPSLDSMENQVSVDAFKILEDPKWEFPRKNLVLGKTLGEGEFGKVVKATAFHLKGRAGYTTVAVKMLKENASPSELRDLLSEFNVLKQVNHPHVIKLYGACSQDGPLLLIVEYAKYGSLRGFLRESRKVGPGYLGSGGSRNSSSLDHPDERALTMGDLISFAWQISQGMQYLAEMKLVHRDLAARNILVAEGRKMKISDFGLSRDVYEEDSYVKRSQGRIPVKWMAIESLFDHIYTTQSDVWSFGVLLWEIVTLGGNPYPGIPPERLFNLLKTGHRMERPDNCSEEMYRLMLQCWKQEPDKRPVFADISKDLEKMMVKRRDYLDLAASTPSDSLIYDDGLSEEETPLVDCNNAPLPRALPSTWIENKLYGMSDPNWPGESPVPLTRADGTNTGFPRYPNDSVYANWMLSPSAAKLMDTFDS

[7] = biological target: Rho-associated protein kinase 1 (Homo sapiens, UniProt Q13464); test: Inhibition of recombinant human GST-tagged ROCK1 catalytic domain expressed in baculovirus expression system
[8] = biological target: T4, Tyrosine-protein kinase Mer (Homo sapiens, UniProt Q12866); test: Inhibition of recombinant human GST-tagged MER cytoplasmic domain expressed in baculovirus expression system
T4 sequence (Q12866 whole entry): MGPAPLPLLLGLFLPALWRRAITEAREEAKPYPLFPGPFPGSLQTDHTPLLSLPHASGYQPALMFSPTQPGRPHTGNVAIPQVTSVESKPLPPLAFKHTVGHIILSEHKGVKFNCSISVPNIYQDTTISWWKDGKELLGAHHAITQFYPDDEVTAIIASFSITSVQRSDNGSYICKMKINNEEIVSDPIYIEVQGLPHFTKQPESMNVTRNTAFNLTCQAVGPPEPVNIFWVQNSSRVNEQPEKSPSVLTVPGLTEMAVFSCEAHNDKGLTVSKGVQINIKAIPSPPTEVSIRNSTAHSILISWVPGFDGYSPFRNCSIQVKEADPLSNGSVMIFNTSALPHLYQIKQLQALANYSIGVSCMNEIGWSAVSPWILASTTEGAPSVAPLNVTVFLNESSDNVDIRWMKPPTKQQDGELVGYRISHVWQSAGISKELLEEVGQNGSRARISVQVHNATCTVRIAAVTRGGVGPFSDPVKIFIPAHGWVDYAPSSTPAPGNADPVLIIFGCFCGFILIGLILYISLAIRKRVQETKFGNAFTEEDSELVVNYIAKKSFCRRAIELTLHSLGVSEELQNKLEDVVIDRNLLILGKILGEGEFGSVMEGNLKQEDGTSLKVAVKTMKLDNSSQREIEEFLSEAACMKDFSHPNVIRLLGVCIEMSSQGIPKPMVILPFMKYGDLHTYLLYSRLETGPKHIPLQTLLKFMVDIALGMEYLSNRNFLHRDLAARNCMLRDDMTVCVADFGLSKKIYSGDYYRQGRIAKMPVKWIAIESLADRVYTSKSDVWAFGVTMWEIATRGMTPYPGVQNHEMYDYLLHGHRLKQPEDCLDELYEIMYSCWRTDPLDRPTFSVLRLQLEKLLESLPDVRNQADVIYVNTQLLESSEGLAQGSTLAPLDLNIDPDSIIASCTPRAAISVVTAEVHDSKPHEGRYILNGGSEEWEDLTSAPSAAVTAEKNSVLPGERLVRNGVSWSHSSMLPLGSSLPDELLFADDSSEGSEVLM

MAP kinase p38 = MAP kinase p38 (Homo sapiens, UniProt O15264+Q15759+Q16539+P53778); test: Inhibition of MAPK p38 (unknown origin)
Ephrin type-A receptor 3 = biological target: T5, Ephrin type-A receptor 3 (Homo sapiens, UniProt P29320); test: Inhibition of recombinant human His-tagged EPHA3 cytoplasmic domain (569 to 976 residues) expressed in baculovirus expression system
T5 sequence (P29320 whole entry): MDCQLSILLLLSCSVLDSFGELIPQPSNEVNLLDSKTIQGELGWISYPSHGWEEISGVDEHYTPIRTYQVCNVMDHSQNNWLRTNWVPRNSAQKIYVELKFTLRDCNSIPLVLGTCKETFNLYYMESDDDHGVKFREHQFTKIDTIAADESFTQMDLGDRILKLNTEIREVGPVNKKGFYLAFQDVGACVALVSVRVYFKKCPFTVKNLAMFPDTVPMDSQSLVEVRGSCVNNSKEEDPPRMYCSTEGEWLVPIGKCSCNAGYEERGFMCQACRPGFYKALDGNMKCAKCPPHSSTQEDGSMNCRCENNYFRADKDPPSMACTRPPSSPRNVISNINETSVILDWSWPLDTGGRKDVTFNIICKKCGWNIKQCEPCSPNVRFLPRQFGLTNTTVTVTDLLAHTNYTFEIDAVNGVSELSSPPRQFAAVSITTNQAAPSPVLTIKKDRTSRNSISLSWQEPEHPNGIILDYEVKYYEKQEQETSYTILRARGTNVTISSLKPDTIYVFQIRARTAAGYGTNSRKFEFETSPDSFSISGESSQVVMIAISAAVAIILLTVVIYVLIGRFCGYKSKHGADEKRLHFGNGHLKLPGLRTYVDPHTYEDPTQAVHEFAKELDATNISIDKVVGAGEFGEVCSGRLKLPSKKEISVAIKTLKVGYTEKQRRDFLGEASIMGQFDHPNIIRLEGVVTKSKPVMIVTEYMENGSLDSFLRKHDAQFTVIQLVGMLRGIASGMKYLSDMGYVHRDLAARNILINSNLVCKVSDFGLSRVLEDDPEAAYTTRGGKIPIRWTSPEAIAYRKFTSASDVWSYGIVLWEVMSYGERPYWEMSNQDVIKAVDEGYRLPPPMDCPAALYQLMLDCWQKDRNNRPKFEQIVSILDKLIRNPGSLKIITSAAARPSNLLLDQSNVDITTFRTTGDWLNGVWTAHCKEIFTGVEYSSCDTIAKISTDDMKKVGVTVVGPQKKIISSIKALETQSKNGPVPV

[9] = biological target: 5'-AMP-activated protein kinase catalytic subunit alpha-1 (Homo sapiens, UniProt Q13131); test: Inhibition of PRKAA1 (unknown origin)
Chain of 5'-AMP-activated protein kinase catalytic subunit alpha-1 (Q13131 whole entry, the tested form may be a part): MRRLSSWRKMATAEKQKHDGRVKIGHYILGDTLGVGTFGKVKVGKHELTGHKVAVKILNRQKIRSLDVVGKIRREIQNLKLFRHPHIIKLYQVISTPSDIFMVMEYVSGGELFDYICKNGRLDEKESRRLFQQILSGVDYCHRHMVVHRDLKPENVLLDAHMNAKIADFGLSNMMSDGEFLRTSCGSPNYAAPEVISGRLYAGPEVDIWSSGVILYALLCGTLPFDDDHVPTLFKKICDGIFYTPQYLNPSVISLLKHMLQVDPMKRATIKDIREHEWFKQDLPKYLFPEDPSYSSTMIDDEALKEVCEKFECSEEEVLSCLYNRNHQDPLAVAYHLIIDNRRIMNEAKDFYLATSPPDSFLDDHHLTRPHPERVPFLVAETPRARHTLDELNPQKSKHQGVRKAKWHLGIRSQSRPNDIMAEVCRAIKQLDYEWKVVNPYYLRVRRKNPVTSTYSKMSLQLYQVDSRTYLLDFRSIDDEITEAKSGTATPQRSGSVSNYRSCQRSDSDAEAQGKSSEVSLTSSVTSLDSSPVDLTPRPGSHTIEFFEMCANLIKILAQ

[10] = biological target: Receptor tyrosine-protein kinase erbB-4 (Homo sapiens, UniProt Q15303); test: Inhibition of recombinant human N-terminal GST-tagged ERBB4 cytoplasmic domain (708 to 993 residues) expressed in baculovirus expression system
Chain of Receptor tyrosine-protein kinase erbB-4 (Q15303 whole entry, the tested form may be a part): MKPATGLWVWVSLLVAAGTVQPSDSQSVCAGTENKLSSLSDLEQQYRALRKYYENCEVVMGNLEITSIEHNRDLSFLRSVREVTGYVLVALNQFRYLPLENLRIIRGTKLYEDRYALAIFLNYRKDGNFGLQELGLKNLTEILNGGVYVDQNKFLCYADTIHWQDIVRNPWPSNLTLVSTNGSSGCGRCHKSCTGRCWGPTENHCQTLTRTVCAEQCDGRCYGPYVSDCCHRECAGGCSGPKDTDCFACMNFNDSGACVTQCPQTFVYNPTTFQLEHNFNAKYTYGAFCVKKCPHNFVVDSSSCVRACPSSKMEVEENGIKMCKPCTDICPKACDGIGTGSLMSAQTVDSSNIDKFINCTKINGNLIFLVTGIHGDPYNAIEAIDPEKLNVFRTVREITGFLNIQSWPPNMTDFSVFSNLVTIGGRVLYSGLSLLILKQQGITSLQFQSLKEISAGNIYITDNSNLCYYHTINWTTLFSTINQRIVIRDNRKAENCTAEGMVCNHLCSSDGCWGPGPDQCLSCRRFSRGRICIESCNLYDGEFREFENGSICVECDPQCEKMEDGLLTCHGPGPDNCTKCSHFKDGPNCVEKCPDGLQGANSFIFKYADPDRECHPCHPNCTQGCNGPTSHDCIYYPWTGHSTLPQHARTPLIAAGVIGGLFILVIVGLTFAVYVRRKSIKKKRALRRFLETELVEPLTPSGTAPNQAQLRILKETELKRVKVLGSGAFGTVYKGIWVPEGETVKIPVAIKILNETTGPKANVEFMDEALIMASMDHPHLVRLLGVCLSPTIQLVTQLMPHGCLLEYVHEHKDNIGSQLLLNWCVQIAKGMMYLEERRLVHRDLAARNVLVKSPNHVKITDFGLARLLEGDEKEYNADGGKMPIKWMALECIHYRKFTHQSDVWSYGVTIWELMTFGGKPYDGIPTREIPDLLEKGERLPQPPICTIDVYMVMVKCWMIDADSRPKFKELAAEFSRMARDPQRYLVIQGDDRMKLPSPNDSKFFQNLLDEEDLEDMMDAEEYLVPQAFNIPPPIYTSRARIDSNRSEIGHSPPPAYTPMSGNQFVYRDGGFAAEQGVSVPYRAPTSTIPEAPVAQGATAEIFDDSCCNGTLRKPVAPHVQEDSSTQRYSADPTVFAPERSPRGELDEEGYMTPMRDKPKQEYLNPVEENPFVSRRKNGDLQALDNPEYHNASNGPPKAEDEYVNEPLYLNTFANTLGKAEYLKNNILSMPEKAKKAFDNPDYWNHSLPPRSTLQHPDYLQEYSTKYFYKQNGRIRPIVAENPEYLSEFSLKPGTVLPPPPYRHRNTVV

[11] = biological target: Glycogen synthase kinase-3 beta (Homo sapiens, UniProt P49841); test: Inhibition of recombinant full length human His-tagged GSK3B expressed in baculovirus expression system
Chain of Glycogen synthase kinase-3 beta (P49841 whole entry, the tested form may be a part): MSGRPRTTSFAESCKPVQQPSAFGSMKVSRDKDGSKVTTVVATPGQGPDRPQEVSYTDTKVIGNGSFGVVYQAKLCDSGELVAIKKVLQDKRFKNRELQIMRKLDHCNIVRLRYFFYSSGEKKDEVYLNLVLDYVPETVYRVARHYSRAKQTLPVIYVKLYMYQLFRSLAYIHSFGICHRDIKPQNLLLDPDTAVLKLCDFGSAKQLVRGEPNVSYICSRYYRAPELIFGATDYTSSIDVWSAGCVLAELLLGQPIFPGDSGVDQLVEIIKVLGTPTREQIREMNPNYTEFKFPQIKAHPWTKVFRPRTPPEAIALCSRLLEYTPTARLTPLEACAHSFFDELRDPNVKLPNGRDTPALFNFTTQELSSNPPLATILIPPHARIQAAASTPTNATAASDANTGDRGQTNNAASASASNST

[12] = biological target: Epidermal growth factor receptor (Homo sapiens, UniProt P00533); test: Inhibition of recombinant human GST-tagged EGFR cytoplasmic domain (668 to 1210 residues) expressed in baculovirus expression system
Chain of Epidermal growth factor receptor (P00533 whole entry, the tested form may be a part): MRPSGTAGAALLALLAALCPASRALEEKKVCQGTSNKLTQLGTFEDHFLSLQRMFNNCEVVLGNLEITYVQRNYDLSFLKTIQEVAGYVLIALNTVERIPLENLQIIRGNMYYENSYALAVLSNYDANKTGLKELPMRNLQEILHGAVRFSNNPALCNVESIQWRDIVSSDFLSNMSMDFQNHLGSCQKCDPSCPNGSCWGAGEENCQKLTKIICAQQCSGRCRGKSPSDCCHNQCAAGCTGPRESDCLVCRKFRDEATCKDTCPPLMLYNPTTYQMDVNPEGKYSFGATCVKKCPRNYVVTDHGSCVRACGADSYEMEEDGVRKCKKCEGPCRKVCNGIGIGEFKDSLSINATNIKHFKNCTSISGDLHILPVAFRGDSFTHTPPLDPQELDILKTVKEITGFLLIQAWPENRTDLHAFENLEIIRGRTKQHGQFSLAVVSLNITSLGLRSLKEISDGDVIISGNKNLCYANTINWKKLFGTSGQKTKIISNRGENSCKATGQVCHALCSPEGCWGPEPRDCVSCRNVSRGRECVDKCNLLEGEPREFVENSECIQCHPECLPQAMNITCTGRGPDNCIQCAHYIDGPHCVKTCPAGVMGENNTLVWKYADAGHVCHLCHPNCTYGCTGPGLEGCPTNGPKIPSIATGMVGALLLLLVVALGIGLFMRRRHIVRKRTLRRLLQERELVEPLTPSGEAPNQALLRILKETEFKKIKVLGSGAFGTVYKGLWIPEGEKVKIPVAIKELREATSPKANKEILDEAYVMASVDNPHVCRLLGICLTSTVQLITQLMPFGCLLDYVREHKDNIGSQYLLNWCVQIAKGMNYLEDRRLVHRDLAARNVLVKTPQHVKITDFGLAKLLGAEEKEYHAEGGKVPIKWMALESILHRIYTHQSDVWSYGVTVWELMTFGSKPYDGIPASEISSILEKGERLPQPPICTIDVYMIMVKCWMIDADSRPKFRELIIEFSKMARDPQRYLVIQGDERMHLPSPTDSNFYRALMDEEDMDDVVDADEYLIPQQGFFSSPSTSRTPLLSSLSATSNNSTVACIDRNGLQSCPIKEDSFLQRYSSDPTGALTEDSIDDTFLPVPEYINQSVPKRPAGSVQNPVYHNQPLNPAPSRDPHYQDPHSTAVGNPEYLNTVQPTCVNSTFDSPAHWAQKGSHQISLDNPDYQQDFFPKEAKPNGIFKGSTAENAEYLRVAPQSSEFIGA

[13] = biological target: Macrophage-stimulating protein receptor (Homo sapiens, UniProt Q04912); test: Inhibition of recombinant human GST-tagged RON cytoplasmic domain expressed in baculovirus expression system

Row | SMILES | EC50 [1] | IC50 [2] | inhibition [3] | other results
1 | COCCCn1cc(NC(=O)c2csc(-c3nncn3C(C)C)n2)cn1 | 65 nM |  |  | 
2 | COCCOc1ccnc(NC(=O)c2csc(-c3nncn3C(C)C)n2)c1 | 140 nM |  |  | 
3 | Cc1cc(F)c(C(=O)Nc2ccccn2)cc1-n1cnc(C2CC2)c1 |  | 6000 nM |  | 
4 | CCn1cc(NC(=O)c2csc(-c3nncn3C(C)C)n2)cn1 | 600 nM | 600 nM |  | 
5 | CCn1cnc(NC(=O)c2cscn2)c1 |  | 100000 nM | 75% | 
6 | CCn1cnc(NC(=O)c2ccoc2)c1 |  | 500000 nM | 51% | 
7 | COCCNc1ccnc(NC(=O)c2csc(-c3nncn3C(C)C)n2)c1 | 99 nM |  |  | 
8 | CC(C)n1cnnc1-c1nc(C(=O)Nc2cnn(C3COC3)c2)cs1 | 130 nM |  |  | 
9 | CCn1cnc(NC(=O)C2CCC2)c1 |  |  | < 10% | 
10 | CCn1cnc(NC(=O)c2ccccc2)c1 |  |  | 40% | 
11 | CC(C)(C)c1ccc(C(=O)Nc2cn3cc(-n4ccnc4)ccc3n2)cc1 |  |  |  | IC50 [4]: 155 nM; IC50 [5]: 5500 nM; IC50 [6]: 11500 nM; IC50 [7]: 4900 nM; IC50 [8]: 6460 nM; pIC50 (MAP kinase p38): < 4.7; IC50 (Ephrin type-A receptor 3): > 20000 nM; IC50 [9]: 13800 nM; IC50 [10]: > 20000 nM; IC50 [11]: 832 nM; IC50 [12]: > 20000 nM; IC50 [13]: > 20000 nM
12 | CCn1cnc(NC(=O)c2ccco2)c1 |  |  | 35% | 
13 | Cc1ccc(C(=O)Nc2cccc(-c3nncn3C(C)C)n2)c(F)c1 |  | 55 nM |  | 
14 | CC(C)n1cnnc1-c1nc(C(=O)Nc2ccccn2)cs1 |  | 400 nM |  | 
